PubChem BioAssay (NCI)
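The compound was tested at five concentrations on cells cultured in 96-well plates, with a 48-hour exposure period. TGI is the concentration that stops growth completely.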

How the values were obtained:
Assay in all cases: growth of human tumour cells (NCI), 48 h
SK-MEL-2 melanoma = test system: SK-MEL-2 melanoma
A498 renal = test system: A498 renal
UACC-257 melanoma = test system: UACC-257 melanoma
COLO 205 colon = test system: COLO 205 colon
A549 NSCLC = test system: A549 NSCLC
DU-145 prostate = test system: DU-145 prostate
SK-MEL-5 melanoma = test system: SK-MEL-5 melanoma
TK-10 renal = test system: TK-10 renal
MOLT-4 leukemia = test system: MOLT-4 leukemia
HOP-92 NSCLC = test system: HOP-92 NSCLC
ACHN renal = test system: ACHN renal
HT29 colon = test system: HT29 colon
HCT-15 colon = test system: HCT-15 colon
SNB-19 CNS = test system: SNB-19 CNS
MALME-3M melanoma = test system: MALME-3M melanoma
HOP-62 NSCLC = test system: HOP-62 NSCLC
K-562 leukemia = test system: K-562 leukemia
EKVX NSCLC = test system: EKVX NSCLC
NCI/ADR-RES ovarian = test system: NCI/ADR-RES ovarian
SN12C renal = test system: SN12C renal
SNB-75 CNS = test system: SNB-75 CNS
OVCAR-4 ovarian = test system: OVCAR-4 ovarian
KM12 colon = test system: KM12 colon
MDA-MB-231 breast = test system: MDA-MB-231 breast
OVCAR-3 ovarian = test system: OVCAR-3 ovarian
HCC-2998 colon = test system: HCC-2998 colon
HCT-116 colon = test system: HCT-116 colon
U251 CNS = test system: U251 CNS
OVCAR-5 ovarian = test system: OVCAR-5 ovarian
SF-268 CNS = test system: SF-268 CNS
CCRF-CEM leukemia = test system: CCRF-CEM leukemia
CAKI-1 renal = test system: CAKI-1 renal
SF-295 CNS = test system: SF-295 CNS
RXF 393 renal = test system: RXF 393 renal
BT-549 breast = test system: BT-549 breast
SW-620 colon = test system: SW-620 colon
SK-OV-3 ovarian = test system: SK-OV-3 ovarian
SK-MEL-28 melanoma = test system: SK-MEL-28 melanoma
RPMI-8226 leukemia = test system: RPMI-8226 leukemia
M14 melanoma = test system: M14 melanoma
UO-31 renal = test system: UO-31 renal
SR leukemia = test system: SR leukemia
HS 578T breast = test system: HS 578T breast
NCI-H226 lung = test system: NCI-H226 lung
786-0 renal = test system: 786-0 renal
NCI-H23 lung = test system: NCI-H23 lung
MDA-N = test system: MDA-N
MCF7 breast = test system: MCF7 breast
NCI-H460 lung = test system: NCI-H460 lung
IGROV1 ovarian = test system: IGROV1 ovarian
T-47D breast = test system: T-47D breast
UACC-62 melanoma = test system: UACC-62 melanoma
LOX IMVI melanoma = test system: LOX IMVI melanoma
SF-539 CNS = test system: SF-539 CNS
PC-3 prostate = test system: PC-3 prostate
NCI-H522 lung = test system: NCI-H522 lung
OVCAR-8 ovarian = test system: OVCAR-8 ovarian
MDA-MB-435 = test system: MDA-MB-435
HL-60(TB) leukemia = test system: HL-60(TB) leukemia

C[C@]1(O)CC(=O)c2c(c(-c3ccc4cc5c(c(O)c4c3O)C(=O)C[C@@](C)(O)C5)c3cccc(O)c3c2O)C1
TGI (SK-MEL-2 melanoma): 6.22 µM
TGI (A498 renal): 16.4 µM
TGI (UACC-257 melanoma): 30.8 µM
TGI (COLO 205 colon): 3.3 µM
TGI (A549 NSCLC): 23.8 µM
TGI (DU-145 prostate): 29 µM
TGI (SK-MEL-5 melanoma): 14 µM
TGI (TK-10 renal): 28 µM
TGI (MOLT-4 leukemia): > 100 µM
TGI (HOP-92 NSCLC): 8.72 µM
TGI (ACHN renal): 18 µM
TGI (HT29 colon): 20 µM
TGI (HCT-15 colon): 11.4 µM
TGI (SNB-19 CNS): 23.2 µM
TGI (MALME-3M melanoma): 27.1 µM
TGI (HOP-62 NSCLC): 10.9 µM
TGI (K-562 leukemia): > 100 µM
TGI (EKVX NSCLC): 24.7 µM
TGI (NCI/ADR-RES ovarian): 25.4 µM
TGI (SN12C renal): 15.8 µM
TGI (SNB-75 CNS): 19.3 µM
TGI (OVCAR-4 ovarian): 21.1 µM
TGI (KM12 colon): 11.7 µM
TGI (MDA-MB-231 breast): 19.3 µM
TGI (OVCAR-3 ovarian): 17.2 µM
TGI (HCC-2998 colon): 16.4 µM
TGI (HCT-116 colon): 79.7 µM
TGI (U251 CNS): 12.3 µM
TGI (OVCAR-5 ovarian): 25.3 µM
TGI (SF-268 CNS): 17.9 µM
TGI (CCRF-CEM leukemia): > 100 µM
TGI (CAKI-1 renal): 18.2 µM
TGI (SF-295 CNS): 18.6 µM
TGI (RXF 393 renal): 17.8 µM
TGI (BT-549 breast): 18.6 µM
TGI (SW-620 colon): 47 µM
TGI (SK-OV-3 ovarian): 24.4 µM
TGI (SK-MEL-28 melanoma): 23.2 µM
TGI (RPMI-8226 leukemia): 47.8 µM
TGI (M14 melanoma): 29.8 µM
TGI (UO-31 renal): 14.8 µM
TGI (SR leukemia): > 100 µM
TGI (HS 578T breast): 88 µM
TGI (NCI-H226 lung): 21.9 µM
TGI (786-0 renal): 17.1 µM
TGI (NCI-H23 lung): 12.9 µM
TGI (MDA-N): 19.4 µM
TGI (MCF7 breast): > 100 µM
TGI (NCI-H460 lung): 11.3 µM
TGI (IGROV1 ovarian): 22.8 µM
TGI (T-47D breast): 14.4 µM
TGI (UACC-62 melanoma): 27 µM
TGI (LOX IMVI melanoma): 26.6 µM
TGI (SF-539 CNS): 6.45 µM
TGI (PC-3 prostate): 13.2 µM
TGI (NCI-H522 lung): 13.5 µM
TGI (OVCAR-8 ovarian): 18.5 µM
TGI (MDA-MB-435): 41 µM

Nc1cc(OCc2ccccc2)c(OCc2ccccc2)cc1C=O
TGI (SK-MEL-2 melanoma): > 100 µM
TGI (A498 renal): 44.2 µM
TGI (UACC-257 melanoma): > 100 µM
TGI (COLO 205 colon): 77.3 µM
TGI (A549 NSCLC): > 100 µM
TGI (DU-145 prostate): > 100 µM
TGI (SK-MEL-5 melanoma): 93.1 µM
TGI (TK-10 renal): 67.8 µM
TGI (MOLT-4 leukemia): > 100 µM
TGI (ACHN renal): 93.5 µM
TGI (HT29 colon): > 100 µM
TGI (HCT-15 colon): > 100 µM
TGI (SNB-19 CNS): > 100 µM
TGI (K-562 leukemia): > 100 µM
TGI (EKVX NSCLC): > 100 µM
TGI (NCI/ADR-RES ovarian): > 100 µM
TGI (SN12C renal): > 100 µM
TGI (HL-60(TB) leukemia): 40 µM
TGI (SNB-75 CNS): > 100 µM
TGI (KM12 colon): 92.2 µM
TGI (MDA-MB-231 breast): > 100 µM
TGI (HCC-2998 colon): 34.5 µM
TGI (HCT-116 colon): 96.8 µM
TGI (U251 CNS): 93.9 µM
TGI (OVCAR-5 ovarian): > 100 µM
TGI (SF-268 CNS): > 100 µM
TGI (CCRF-CEM leukemia): > 100 µM
TGI (SF-295 CNS): 70 µM
TGI (BT-549 breast): 37.3 µM
TGI (SW-620 colon): > 100 µM
TGI (SK-OV-3 ovarian): > 100 µM
TGI (SK-MEL-28 melanoma): > 100 µM
TGI (RPMI-8226 leukemia): > 100 µM
TGI (SR leukemia): > 100 µM
TGI (HS 578T breast): > 100 µM
TGI (NCI-H226 lung): > 100 µM
TGI (786-0 renal): 55.4 µM
TGI (MDA-N): > 100 µM
TGI (MCF7 breast): > 100 µM
TGI (NCI-H460 lung): 52.8 µM
TGI (IGROV1 ovarian): > 100 µM
TGI (T-47D breast): > 100 µM
TGI (LOX IMVI melanoma): 77.2 µM
TGI (SF-539 CNS): 31.7 µM
TGI (PC-3 prostate): > 100 µM
TGI (NCI-H522 lung): 24.5 µM
TGI (OVCAR-8 ovarian): > 100 µM
TGI (MDA-MB-435): > 100 µM
